Where two headings read alike, the source gives them in different places.
Assays:
[1] = Antioxidant potential, ABTS assay; conditions: compared to compound free blank
Protocol: To evaluate the potential of allyl HTT and 4-MSOB HTT to act as antioxidants, ABTS and DPPH were used as model radicals and Trolox as reference antioxidants based on Shalaby and Shanab ([28]). In total, 1.5 mg of ABTS and 0.26 mg potassium peroxodisulfate were dissolved in 4 mL of pure water and incubated in the dark overnight at room temperature. Afterward, 36 mL of MeOH were added to obtain the fresh ABTS working solution. In the case of the DPPH assay, 1.1 mg of DPPH were dissolved in 4 mL of MeOH and incubated for 2 h in the dark at 4°C, followed by the addition of 36 mL of MeOH to obtain the fresh DPPH working solution. Standards of Trolox, allyl HTT, and 4-MSOB HTT were prepared in water/MeOH (90/10, v/v%) at concentrations in the range of 6.25–100 μM. To detect the antioxidant potential, 100 μL of standard or water/MeOH (90/10, v/v%) as control were added to 1,000 μL of ABTS or DPPH working solution, and the extinction was measured directly after mixing and after 6 min of incubation in the dark with a spectrometer (UviLine 9100, Schott Instruments, Mainz, Germany) at 734 nm in the case of ABTS assay and 515 nm in DPPH assay (each prepared as duplicate). The results are reported as mean ± SD of the reduction of the extinction compared to the control.

Caco-2 cells = assay: Cytotoxicity, neutral red uptake assay; format: cell-based, human; conditions: Caco-2, neutral red uptake assay, up to 100 μM, 24 h
Protocol: To determine the cytotoxicity of allyl HTT and 4-MSOB HTT, HepG2 and Caco-2 cells were seeded in a 96-well TC-plate (standard F, sterile, from Sarsted, Nümbrecht, Germany) using a seeding density of 20,000 cells/well. After 24 h, the medium was exchanged to 200 μL pure medium or 200 μL medium containing allyl HTT or 4-MSOB HTT with concentrations in the range of 0.1–100 μM. The cells were treated for 24 h under cell culture conditions (prepared for three biological replicates, every 3 technical replicates). Cell viability was determined using the MTT assay and the neutral red uptake assay based on Schröter et al. ([27]). In the case of MTT assay, after 24 h of HTT treatment, 20 μL of MTT solution (75 mg MTT in 15 mL PBS) were added, and cells were incubated for 60 min under cell culture conditions. Afterward, the supernatant was removed and 100 μL of lysis buffer (5% formic acid in isopropanol) was added and the plate was shaken for 10 min at 300 rpm before measuring the absorption at 550 ± 5 nm (reference 690 ± 5 nm) by a Tecan i-control Infinite M200 PRO plate reader (Crailsheim, Germany). In the case of the neutral red uptake assay, the supernatant was removed after 24 h HTT treatment, and 100 μL neutral red solution (40 mg neutral red in 10 mL PBS, freshly diluted 1:100 with medium and incubated for 24 h under cell culture conditions) was added. After incubation of neutral red solution for 2 h under cell culture conditions, the supernatant was removed, and cells were washed with 150 μL of PBS. After removing PBS, 150 μL desorb solution (49.5% water/49.5% ethanol/1% acetic acid) was added and the plate was shaken for 10 min at 300 rpm before measuring the absorption at 540 ± 5 nm by Tecan i-control Infinite M200 PRO plate reader. The mean ± SD is used for presenting the results of three technical replicates for each data point of the three biological replicates.

[2] = molecular target: T1, glycogen synthase kinases-3β (Homo sapiens, UniProt P49841); assay: GSK-3 inhibition, Z'-LYTE kinase assay; format: biochemical
T1 construct: purchased Life Technologies/Thermo Fisher Scientific, SelectScreen Services (Madison, WI, USA)
Protocol: (§1) The determination of the inhibition of glycogen synthase kinases-3α and -3β by allyl HTT and 4-MSOB HTT was performed via contract research with Life Technologies/Thermo Fisher Scientific by sending the compounds dissolved in 100% DMSO to SelectScreen Services (Madison, WI, USA). The tested concentrations in the Z'-LYTE assay were up to 100 μM and standards were prepared as duplicates. The Z'-LYTE kinase assay is a fluorescence-based assay using a coupled-enzyme format and the different sensitivity of phosphorylated and non-phosphorylated peptides regarding their fluorescence. The data are shown as mean ± SD. Due to the impression of significant bioactivity, further comparisons were performed. […] Stars report different significance levels: ^*p ≤ 0.05, ^**p ≤ 0.01, and ^***p ≤ 0.001.

[3] = molecular target: T2, glycogen synthase kinases-3α (Homo sapiens, UniProt P49840); assay: GSK-3 inhibition, Z'-LYTE kinase assay; format: biochemical
T2 construct: purchased Life Technologies/Thermo Fisher Scientific, SelectScreen Services (Madison, WI, USA)
Protocol: as §1

[4] = inverse exposure: spiked in the lower compartment, 2 min
[5] = inverse exposure: spiked in the lower compartment, 1 h
[6] = inverse exposure: spiked in the lower compartment, 2 h
[7] = inverse exposure: spiked in the lower compartment, 24 h
[8] = spiked in the upper compartment, 2 min
[9] = spiked in the upper compartment, 1 h
[10] = spiked in the upper compartment, 2 h
[11] = spiked in the upper compartment, 24 h

T1 sequence (P49841 whole entry): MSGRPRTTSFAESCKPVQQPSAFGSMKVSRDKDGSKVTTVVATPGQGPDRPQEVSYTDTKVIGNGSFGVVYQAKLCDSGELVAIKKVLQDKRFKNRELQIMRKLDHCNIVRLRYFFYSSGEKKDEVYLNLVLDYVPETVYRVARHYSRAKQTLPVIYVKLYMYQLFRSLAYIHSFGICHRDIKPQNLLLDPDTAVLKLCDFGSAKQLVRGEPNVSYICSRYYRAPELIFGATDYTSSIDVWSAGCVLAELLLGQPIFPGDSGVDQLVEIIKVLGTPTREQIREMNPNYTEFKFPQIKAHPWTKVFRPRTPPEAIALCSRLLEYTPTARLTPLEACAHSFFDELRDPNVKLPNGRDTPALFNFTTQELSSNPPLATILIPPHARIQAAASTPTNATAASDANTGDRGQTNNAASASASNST
T2 sequence (P49840 whole entry): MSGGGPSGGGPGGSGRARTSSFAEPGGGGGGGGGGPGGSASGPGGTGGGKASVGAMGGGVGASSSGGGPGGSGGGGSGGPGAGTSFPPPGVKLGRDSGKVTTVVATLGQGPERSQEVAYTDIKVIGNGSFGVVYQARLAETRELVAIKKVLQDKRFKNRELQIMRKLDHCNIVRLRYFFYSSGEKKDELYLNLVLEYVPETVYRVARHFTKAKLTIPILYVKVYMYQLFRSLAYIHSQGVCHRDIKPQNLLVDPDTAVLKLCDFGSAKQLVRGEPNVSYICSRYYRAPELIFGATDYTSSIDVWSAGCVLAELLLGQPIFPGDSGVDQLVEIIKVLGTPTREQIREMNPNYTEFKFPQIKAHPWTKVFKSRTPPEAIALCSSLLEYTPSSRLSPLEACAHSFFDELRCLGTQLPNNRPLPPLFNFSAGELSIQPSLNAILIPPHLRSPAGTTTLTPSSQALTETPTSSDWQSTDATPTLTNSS

Row | SMILES | Relative signal reduction of the extinction value of the radical ABTS ([1]; 6.25 µM) | Relative signal reduction of the extinction value of the radical ABTS ([1]; 12.5 µM) | Relative signal reduction of the extinction value of the radical ABTS ([1]; 25 µM) | Relative signal reduction of the extinction value of the radical ABTS ([1]; 50 µM) | Relative signal reduction of the extinction value of the radical ABTS ([1]; 100 µM) | effect on cell viability compared to untreated cells (Caco-2 cells) | inhibition at 100 µM [2] | measured ratio for the higher uptake of allyl HTT compared to 4-MSOB HTT (Caco-2 cell layer; human, Caco-2, 100 μM) | Concentration ratio of compartment non-spiked vs. spiked (Caco-2 cell layer; [4]) | Concentration ratio of compartment non-spiked vs. spiked (Caco-2 cell layer; [5]) | Concentration ratio of compartment non-spiked vs. spiked (Caco-2 cell layer; [6]) | Concentration ratio of compartment non-spiked vs. spiked (Caco-2 cell layer; [7]) | Concentration ratio of compartment non-spiked vs. spiked (Caco-2 cell layer; [8]) | Concentration ratio of compartment non-spiked vs. spiked (Caco-2 cell layer; [9]) | Concentration ratio of compartment non-spiked vs. spiked (Caco-2 cell layer; [10]) | Concentration ratio of compartment non-spiked vs. spiked (Caco-2 cell layer; [11]) | inhibition at 100 µM [3]
1 | C=CCN1C(=S)SCC1O (stereo not shown) [allyl HTT, 3-allyl-4-hydroxythiazolidine-2-thione] | -0.2 ± 0.3% | -0.3 ± 0.3% | 0.4 ± 0.4% | 0.3 ± 0.5% | -0.3 ± 0.3% | did not show any effect on cell viability | ~20% | 10 fold | 0% | 39% | 64% | 102% | 1% | 17% | 42% | 96% | 
2 | C[S+]([O-])CCCCN1C(=S)SCC1O (stereo not shown) [4-MSOB HTT, 4-hydroxy-3-(4-(methylsulfinyl)butyl)thiazolidine-2-thione] | 0.6 ± 0.5% | -0.1 ± 0.5% | -0.5 ± 0.4% | 1.1 ± 0.8% | 0.4 ± 0.5% | did not show any effect on cell viability |  |  | 0% | 5% | 11% | 99% | 0% | 1% | 3% | 54% | ~29%

Reference: publication PMC9354954, “Assessing Bioavailability and Bioactivity of 4-Hydroxythiazolidine-2-Thiones, Newly Discovered Glucosinolate Degradation Products Formed During Domestic Boiling of Cabbage” (Frontiers in Nutrition, 2022)
